# Values quoted from earlier work as cited in patent US12622967B2, “Molecules, formulations, and methods for nutritional support of athletes, patients, and others” (Today, Inc., priority 2022, dated 2026).
# Tests used:
# [1] = high intensity exercise
# [2] = systemic infusion to target 4 mM blood [lactate]; human experimentation under way, personal communication
compound,measurement,setting,value
CC(O)C(=O)O (centres unmarked) [lactate],time to be oxidized to energy,[1],less than 5 min
CC(O)C(=O)[O-].[Na+] (centres unmarked) [sodium lactate],effect on cerebral LPR (lactate/pyruvate ratio),[2],decreases cerebral LPR
